Data as given in article PMC10762035, “Molecular basis of human trace amine-associated receptor 1 activation” (Nature Communications, 2024).
Where a chain is given by its changes, count along the chain named. Where “and” joins values, the source holds several entries; their conditions need not be identical. Identical values can stand only once.

Columns and labels:
Format in all cases: cell-based
hTA1 C13S = molecular target: T1, hTA1 C13S (Homo sapiens, UniProt Q96RJ0, C13S); assay: GloSensor cAMP accumulation assay, C13S mutant; conditions: for C13S - Normalized Luminescence Counts (N=2): log[Compound], single wells
T1 construct: expressed in transfected cells; host or cells: HEK293T
T1 sequence (Q96RJ0 1-339 C13S): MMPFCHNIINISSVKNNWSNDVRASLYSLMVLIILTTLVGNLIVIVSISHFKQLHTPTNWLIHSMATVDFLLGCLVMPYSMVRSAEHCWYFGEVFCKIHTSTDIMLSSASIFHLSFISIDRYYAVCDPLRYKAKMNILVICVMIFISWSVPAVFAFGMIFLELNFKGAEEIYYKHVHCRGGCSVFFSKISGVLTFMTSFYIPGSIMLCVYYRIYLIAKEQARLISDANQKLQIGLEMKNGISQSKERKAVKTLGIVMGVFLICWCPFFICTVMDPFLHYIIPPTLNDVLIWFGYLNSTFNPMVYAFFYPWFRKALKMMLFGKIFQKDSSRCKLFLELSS

hTA1 C178S = molecular target: T2, hTA1 C178S (Homo sapiens, UniProt Q96RJ0, C178S); assay: GloSensor cAMP accumulation assay, C178S mutant; conditions: for C178S - Normalized Luminescence Counts (N=2): log[Compound], single replicates
T2 construct: expressed in transfected cells; host or cells: HEK293T
T2 sequence (Q96RJ0 1-339 C178S): T1 sequence (Q96RJ0 1-339 C13S) with S13C, C178S

hTA1 W264F = molecular target: T3, hTA1 W264F (Homo sapiens, UniProt Q96RJ0, W264F); assay: GloSensor cAMP accumulation assay, W264F mutant;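 further: cells transiently transfected with receptor plus GloSensor, luminescence read 30 min after agonist addition at room temperature, concentration-response curves fitted by log(agonist) vs response regression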
T3 construct: expressed in transfected cells; host or cells: HEK293T
T3 sequence (Q96RJ0 1-339 W264F): T1 sequence (Q96RJ0 1-339 C13S) with S13C, W264F

[1] = C178S, each row one experiment (N=2), 3 replicates

Cc1c(F)cccc1[C@H]1COC(N)=N1 [Ro5263397]
Emax values (hTA1 C13S; C13S, Mean of fit per experiment): 73.5469 and 88.9072 | Span ± SEM (Emax normalized to β-PEA) (hTA1 C13S; C13S, n=2): 81.23 ± 7.68 | pEC50 ± SEM (hTA1 C13S; C13S, n=2): 8.6 ± 0.08 | EC50 (hTA1 C13S; C13S, n=2, read-out: EC50): 2.48 nM | pEC50 values, Mean (hTA1 C13S; hTA1 C13S, mean of 3 replicates, one line per independent experiment): 8.7547 and 8.4539 | C13S - Normalized Luminescence Counts (N=2) (hTA1 C13S; M = -5): 76.1278 and 93.1423 and 84.8444 and 95.4829 and 105.462 and 103.819 | C13S - Normalized Luminescence Counts (N=2) (hTA1 C13S; M = -5.522): 68.8196 and 89.374 and 78.4497 and 85.6471 and 106.265 and 88.9317 | C13S - Normalized Luminescence Counts (N=2) (hTA1 C13S; M = -6): 64.1759 and 93.599 and 66.6881 and 75.8649 and 92.3769 and 86.7896 | C13S - Normalized Luminescence Counts (N=2) (hTA1 C13S; M = -6.522): 56.487 and 80.4671 and 60.7882 and 74.8831 and 89.3601 and 80.042 | pEC50 values, Mean (hTA1 C178S; [1]): 8.162 and 8.579 | ΔpEC50 values (each mutant value - WT average), Mean (hTA1 C178S; [1]): -0.6693 and -0.2522 | Span ± SEM (Emax normalized to β-PEA) (hTA1 C178S; C178S, n=2): 105.17 | pEC50 ± SEM (hTA1 C178S; C178S, n=2): 8.37 ± 0.09 | EC50 (hTA1 C178S; C178S, n=2, read-out: EC50): 4.26 nM | Emax (hTA1 C178S; C178S, relative to β-PEA): 105.2% | Emax values, Mean (hTA1 C178S; C178S, β-PEA = 100, each row one experiment (N=2), 3 replicates): 92.0056 and 118.332 | C178S - Normalized Luminescence Counts (N=2) (hTA1 C178S; M = -5): 116.512 and 98.9884 and 102.82 and 110.453 and 111.171 and 57.8292 | C178S - Normalized Luminescence Counts (N=2) (hTA1 C178S; M = -5.522): 90.6706 and 92.2127 and 73.4274 and 137.917 and 164.274 and 131.185 | C178S - Normalized Luminescence Counts (N=2) (hTA1 C178S; M = -6): 100.344 and 93.0071 and 81.792 and 122.18 and 154.88 and 155.328 | C178S - Normalized Luminescence Counts (N=2) (hTA1 C178S; M = -6.522): 92.3996 and 91.979 and 98.7081 and 121.313 and 114.761 and 110.333 | C178S - Normalized Luminescence Counts (N=2) (hTA1 C178S; M = -7): 78.9882 and 76.0443 and 77.119 and 120.565 and 138.096 and 118.74 | C178S - Normalized Luminescence Counts (N=2) (hTA1 C178S; M = -7.522): 86.6519 and 72.9134 and 81.9322 and 98.8752 and 109.017 and 95.5544 | C178S - Normalized Luminescence Counts (N=2) (hTA1 C178S; M = -8): 48.9411 and 58.2403 and 50.0626 and 103.512 and 85.5323 and 112.428 | C178S - Normalized Luminescence Counts (N=2) (hTA1 C178S; M = -8.522): 29.268 and 30.1559 and 35.3428 and 67.4924 and 67.6121 and 48.0464 | C178S - Normalized Luminescence Counts (N=2) (hTA1 C178S; M = -9): 15.623 and 14.3146 and 15.5763 and 45.7428 and 46.9395 and 50.4398 | C178S - Normalized Luminescence Counts (N=2) (hTA1 C178S; M = -9.522): 4.128 and 7.025 and 6.23 and 17.8303 and 18.7278 and 23.3949 | C178S - Normalized Luminescence Counts (N=2) (hTA1 C178S; M = -10): 3.707 (2×) and 2.258 and 5.325 and 8.915 and 9.424 | C178S - Normalized Luminescence Counts (N=2) (hTA1 C178S; M = -10.522): 1.885 and 0.4359 and 0.8097 and 2.513 and 2.752 and 5.684 | C178S - Normalized Luminescence Counts (N=2) (hTA1 C178S; M = -11): 0.4826 and 1.043 and -0.5921 and 4.667 and 6.223 and 4.577 | C178S - Normalized Luminescence Counts (N=2) (hTA1 C178S; M = -11.522): 0.9967 and 0.3892 and 0.01533 and 3.919 and 5.445 and 4.457 | C178S - Normalized Luminescence Counts (N=2) (hTA1 C178S; M = -12): 2.258 and 1.511 (2×) and 2.7223 and 4.936 and 4.158 | C178S - Normalized Luminescence Counts (N=2) (hTA1 C178S; M = -12.522): 0.1555 and 0.7163 and 0.9032 and 5.3849 and 3.7993 and 4.607 | ΔEmax values (each mutant value - WT average) (hTA1 W264F; W246F mutant (so in the source) minus WT average): -34.1318 | pEC50 values, Mean (hTA1 W264F; W246F mutant (so in the source), each line an independent experiment, 3 replicates): 5.605 and 5.96 | Emax values, Mean (hTA1 W264F; W246F mutant (so in the source), β-PEA = 100, each line an independent experiment, 3 replicates): 52.5716 and 62.1592 | decrease in potency vs wild type (hTA1 W264F; W264F): more than 1000 fold | Span ± SEM (Emax normalized to β-PEA) (hTA1 W264F; W264F, n=2): 57.37 ± 4.79
